pIC50: −log10 of the molar value. Where only a bound is given, the exact number is not on record here.

The assay relates to MCF7 cells. The assay can be described thus: Anti-proliferation (viability) of MCF7 cells (Table 7, FIG. 2B). It counts as cell-based. Conditions: Homo sapiens, MCF7, MCF7 cells, 3-6 days, 10-point serial dilution; read-out: GI IC50 in MCF-7.
The pIC50 is −log10 of the IC50, conventionally taken in molar units. For `CC(=O)c1c(C)c2cnc(Nc3ccc(N4CCN(CC(=O)NC5CC6(C5)CC(Nc5nc(OC(C)C)ccc5C(=O)Nc5cn(C)c(C7CC7)n5)C6)CC4)cn3)nc2n(C2CCCC2)c1=O` (centres unmarked) [CPD-292, 2-((6-(2-(4-(6-((6-acetyl-8-cyclopentyl-5-methyl-7-oxo-7,8-dihydropyrido[2,3-d]pyrimidin-2-yl)amino)pyridin-3-yl)piperazin-1-yl)acetamido)spiro[3.3]heptan-2-yl)amino)-N-(2-cyclopropyl-1-methyl-1H-imidazol-4-yl)-6-isopropoxynicotinamide], the pIC50 was less than 7.00. Consider `CC(=O)c1c(C)c2cnc(Nc3ccc(N4CCN(CC(=O)NC5CC6(C5)CC(Nc5nc(NC(C)C)ccc5C(=O)Nc5cc(C)n(C7CC7)n5)C6)CC4)cn3)nc2n(C2CCCC2)c1=O` (centres unmarked) [CPD-452, 2-((6-(2-(4-(6-((6-acetyl-8-cyclopentyl-5-methyl-7-oxo-7,8-dihydropyrido[2,3-d]pyrimidin-2-yl)amino)pyridin-3-yl)piperazin-1-yl)acetamido)spiro[3.31]heptan-2-yl)amino)-N-(1-cyclopropyl-5-methyl-1H-pyrazol-3-yl)-6-(isopropylamino)nicotinamide], for which the pIC50 is greater than 7.30.

Turning to `CNc1ccc(C(=O)Nc2ccc(N(C)C)nn2)c(NC2CCC3(CC(NC(=O)CN4CCN(c5ccc(Nc6ncc7c(C)c(C(C)=O)c(=O)n(C8CCCC8)c7n6)nc5)CC4)C3)C2)n1` (centres unmarked) [CPD-416, 2-((2-(2-(4-(6-((6-acetyl-8-cyclopentyl-5-methyl-7-oxo-7,8-dihydropyrido[2,3-d]pyrimidin-2-yl)amino)pyridin-3-yl)piperazin-1-yl)acetamido)spiro[3.4]octan-6-yl)amino)-N-(6-(dimethylamino)pyridazin-3-yl)-6-(methylamino)nicotinamide], the pIC50 was less than 7.00.

For the compound `CC(=O)c1c(C)c2cnc(Nc3ccc(N4CCC(N5CCC(C(=O)N6CCC(Nc7nc(NC(C)C)ccc7C(=O)Nc7ccc(N(C)C)nn7)CC6)C5)CC4)cn3)nc2n(C2CCCC2)c1=O` (centres unmarked) [CPD-396, 2-((1-(1-(1-(6-((6-acetyl-8-cyclopentyl-5-methyl-7-oxo-7,8-dihydropyrido[2,3-d]pyrimidin-2-yl)amino)pyridin-3-yl)piperidin-4-yl)pyrrolidine-3-carbonyl)piperidin-4-yl)amino)-N-(6-(dimethylamino)pyridazin-3-yl)-6-(isopropylamino)nicotinamide], the pIC50 is less than 7.00. `CNc1ccc(C(=O)Nc2ccc(N(C)C)nn2)c(NC2CC(C(=O)NC3CCC4(CC3)CCN(c3ccc(Nc5ncc6c(C)c(C(C)=O)c(=O)n(C7CCCC7)c6n5)nc3)CC4)C2)n1` (centres unmarked) [CPD-388, 2-((3-((3-(6-((6-acetyl-8-cyclopentyl-5-methyl-7-oxo-7,8-dihydropyrido[2,3-d]pyrimidin-2-yl)amino)pyridin-3-yl)-3-azaspiro[5.5]undecan-9-yl)carbamoyl)cyclobutyl)amino)-N-(6-(dimethylamino)pyridazin-3-yl)-6-(methylamino)nicotinamide]: the negative-log IC50 (pIC50) is less than 7.00. As to `CCc1nc(NC(=O)c2ccc(NC)nc2NC2CC3(CC(NC(=O)CN4CCN(c5ccc(Nc6ncc7c(C)c(C(C)=O)c(=O)n(C8CCCC8)c7n6)nc5)CC4)C3)C2)cn1C` (centres unmarked) [CPD-308, 2-((6-(2-(4-(6-((6-acetyl-8-cyclopentyl-5-methyl-7-oxo-7,8-dihydropyrido[2,3-d]pyrimidin-2-yl)amino)pyridin-3-yl)piperazin-1-yl)acetamido)spiro[3.3]heptan-2-yl)amino)-N-(2-ethyl-1-methyl-1H-imidazol-4-yl)-6-(methylamino)nicotinamide], the pIC50 is less than 7.00. The result for `CNc1ccc(C(=O)Nc2ccc(N(C)C)nn2)c(NC2CC3(C2)CC(C(=O)N2CC(C4CCN(c5ccc(Nc6ncc7c(C)c(C(C)=O)c(=O)n(C8CCCC8)c7n6)nc5)CC4)C2)C3)n1` (centres unmarked) [CPD-376, 2-((6-(3-(1-(6-((6-acetyl-8-cyclopentyl-5-methyl-7-oxo-7,8-dihydropyrido[2,3-d]pyrimidin-2-yl)amino)pyridin-3-yl)piperidin-4-yl)azetidine-1-carbonyl)spiro[3.3]heptan-2-yl)amino)-N-(6-(dimethylamino)pyridazin-3-yl)-6-(methylamino)nicotinamide] reads less than 7.00; that for `CC(=O)c1c(C)c2cnc(Nc3ccc(N4CCN(C5CN(C(=O)C6CC7(CC(Nc8nc(NC(C)C)ccc8C(=O)Nc8ccc(N(C)C)nn8)C7)C6)C5)CC4)cn3)nc2n(C2CCCC2)c1=O` (centres unmarked) [CPD-401, 2-((6-(3-(4-(6-((6-acetyl-8-cyclopentyl-5-methyl-7-oxo-7,8-dihydropyrido[2,3-d]pyrimidin-2-yl)amino)pyridin-3-yl)piperazin-1-yl)azetidine-1-carbonyl)spiro[3.3]heptan-2-yl)amino)-N-(6-(dimethylamino)pyridazin-3-yl)-6-(isopropylamino)nicotinamide], less than 7.00.

For the compound `[2H]C([2H])([2H])Nc1ccc(C(=O)Nc2cn(C)c(C3CC3)n2)c(NC2CC3(C2)CN(C(=O)CC(N2CCN(c4ccc(Nc5ncc6c(C)c(C(C)=O)c(=O)n(C7CCCC7)c6n5)nc4)CC2)C(F)(F)F)C3)n1` (centres unmarked) [CPD-435, 2-((2-(3-(4-(6-((6-acetyl-8-cyclopentyl-5-methyl-7-oxo-7,8-dihydropyrido[2,3-d]pyrimidin-2-yl)amino)pyridin-3-yl)piperazin-1-yl)-4,4,4-trifluorobutanoyl)-2-azaspiro[3.3]heptan-6-yl)amino)-N-(2-cyclopropyl-1-methyl-1H-imidazol-4-yl)-6-((methyl-d3)amino)nicotinamide], the pIC50 is greater than 7.30.

As for `[2H]C([2H])([2H])Nc1ccc(C(=O)Nc2ccc(N(C)C)nn2)c(NC2CC3(C2)CC(C(=O)N2CCC4(CCN(c5ccc(Nc6ncc7c(C)c(C(C)=O)c(=O)n(C8CCCC8)c7n6)nc5)CC4)C2)C3)n1` (centres unmarked) [CPD-380, 2-((6-(8-(6-((6-acetyl-8-cyclopentyl-5-methyl-7-oxo-7,8-dihydropyrido[2,3-d]pyrimidin-2-yl)amino)pyridin-3-yl)-2,8-diazaspiro[4.5]decane-2-carbonyl)spiro[3.3]heptan-2-yl)amnion)-N-(6-(dimethylamino)pyridazin-3-yl)-6-((methyl-d3)amnion)nicotinamide], the pIC50 was less than 7.00. Turning to `CC(=O)c1c(C)c2cnc(Nc3ccc(N4CCN(CC(=O)NC(C)(C)C5CC(Nc6nc(NC(C)C)ccc6C(=O)Nc6cc(C)n(C)n6)C5)CC4)cn3)nc2n(C2CCCC2)c1=O` (centres unmarked) [CPD-387, 2-((3-(2-(2-(4-(6-((6-acetyl-8-cyclopentyl-5-methyl-7-oxo-7,8-dihydropyrido[2,3-d]pyrimidin-2-yl)amino)pyridin-3-yl)piperazin-1-yl)acetamido)propan-2-yl)cyclobutyl)amino)-N-(1,5-dimethyl-1H-pyrazol-3-yl)-6-(isopropylamino)nicotinamide], the pIC50 was 7.00 to 7.30. For `CCCc1nc(NC(=O)c2ccc(NC)nc2NC2CC3(CC(NC(=O)CN4CCN(c5ccc(Nc6ncc7c(C)c(C(C)=O)c(=O)n(C8CCCC8)c7n6)nc5)CC4)C3)C2)cn1C` (centres unmarked) [CPD-309, 2-((6-(2-(4-(6-((6-acetyl-8-cyclopentyl-5-methyl-7-oxo-7,8-dihydropyrido[2,3-d]pyrimidin-2-yl)amino)pyridin-3-yl)piperazin-1-yl)acetamido)spiro[3.3]heptan-2-yl)amino)-N-(1-methyl-2-propyl-1H-imidazol-4-yl)-6-(methylamino)nicotinamide] the value was less than 7.00. For `CC(=O)c1c(C)c2cnc(Nc3ccc(N4CCN(C(CC(=O)N5CC6(CC(Nc7nc(NC(C)C)ccc7C(=O)Nc7cn(C)c(C8CC8)n7)C6)C5)C(F)(F)F)CC4)cn3)nc2n(C2CCCC2)c1=O` (centres unmarked) [CPD-436, 2-((2-(3-(4-(6-((6-acetyl-8-cyclopentyl-5-methyl-7-oxo-7,8-dihydropyrido[2,3-d]pyrimidin-2-yl)amino)pyridin-3-yl)piperazin-1-yl)-4,4,4-trifluorobutanoyl)-2-azaspiro[3.3]heptan-6-yl)amino)-N-(2-cyclopropyl-1-methyl-1H-imidazol-4-yl)-6-(isopropylamino)nicotinamide] the value was greater than 7.30; for `CNc1ccc(C(=O)Nc2ccc(N(C)C)nn2)c(NC2CC(C(=O)N3CCC4(CCN(c5ccc(Nc6ncc7c(C)c(C(C)=O)c(=O)n(C8CCCC8)c7n6)nc5)CC4)C3)C2)n1` (centres unmarked) [CPD-381, 2-((3-(8-(6-((6-acetyl-8-cyclopentyl-5-methyl-7-oxo-7,8-dihydropyrido[2,3-d]pyrimidin-2-yl)amino)pyridin-3-yl)-2,8-diazaspiro[4.5]decane-2-carbonyl)cyclobutyl)amino)-N-(6-(dimethylamino)pyridazin-3-yl)-6-(methylamino)nicotinamide], less than 7.00. For the compound `CC(=O)c1c(C)c2cnc(Nc3ccc(N4CCC5(CC4)CC5C(=O)N4CCC(Nc5nc(NC(C)C)ccc5C(=O)Nc5cc(C)n(C)n5)CC4)cn3)nc2n(C2CCCC2)c1=O` (centres unmarked) [CPD-408, 2-((1-(6-(6-((6-acetyl-8-cyclopentyl-5-methyl-7-oxo-7,8-dihydropyrido[2,3-d]pyrimidin-2-yl)amino)pyridin-3-yl)-6-azaspiro[2.5]octane-1-carbonyl)piperidin-4-yl)amino)-N-(1,5-dimethyl-1H-pyrazol-3-yl)-6-(isopropylamino)nicotinamide], the pIC50 was greater than 7.30. The result for `CC(=O)c1c(C)c2cnc(Nc3ccc(N4CCN(C5CCN(C(=O)C6CC7(CC(Nc8nc(NC(C)C)ccc8C(=O)Nc8ccc(N(C)C)nn8)C7)C6)C5)CC4)cn3)nc2n(C2CCCC2)c1=O` (centres unmarked) [CPD-400, 2-((6-(3-(4-(6-((6-acetyl-8-cyclopentyl-5-methyl-7-oxo-7,8-dihydropyrido[2,3-d]pyrimidin-2-yl)amino)pyridin-3-yl)piperazin-1-yl)pyrrolidine-1-carbonyl)spiro[3.3]heptan-2-yl)amino)-N-(6-(dimethylamino)pyridazin-3-yl)-6-(isopropylamino)nicotinamide] reads 7.00 to 7.30.

`CC(=O)c1c(C)c2cnc(Nc3ccc(N4CCC(N5CCC(C(=O)N6CC(Nc7nc(NC(C)C)ccc7C(=O)Nc7ccc(N(C)C)nn7)C6)C5)CC4)cn3)nc2n(C2CCCC2)c1=O` (centres unmarked) [CPD-394, 2-((1-(1-(1-(6-((6-acetyl-8-cyclopentyl-5-methyl-7-oxo-7,8-dihydropyrido[2,3-d]pyrimidin-2-yl)amino)pyridin-3-yl)piperidin-4-yl)pyrrolidine-3-carbonyl)azetidin-3-yl)amino)-N-(6-(dimethylamino)pyridazin-3-yl)-6-(isopropylamino)nicotinamide]: the pIC50 is less than 7.00.

(Values after patent US20260297081A1, “COMPOUNDS AND METHODS OF TREATING CANCERS” (Cullgen Inc., priority 2023, published 2026).)
